Several values for one entry are separate records, joined by “and”; a condition that tells them apart may be missing. Equal entries are not always repeated. Structures can show the parent of a compound that is named as a salt.
Tests used:
Aspirin-induced ulcer = experiment: Aspirin-induced ulcer, inhibitory effect, rats; type: in vivo, rat (male Donryu strain); conditions: 1,000 mg/kg, P.O.; for Ulcer index (total length of all lesions): immediately after pylorus ligation, aspirin 100 mg/kg; for % Inhibition: vs control of the same run
Experimental: (§1) It will be noted that as control compounds for the purposes of comparison, use was made of L-carnosine, L-glutamine, N-acetyl-L-glutamine aluminum and aluminum sucrose sulfate which are known to have an anti-ulcer effect. The anti-ulcer effects and degrees of toxicity of the N-acylcarnosine aluminum compounds according to the invention were determined using rats in which instances various gastric ulcer models of rats were utilized to estimate the anti-ulcer effects.
Aspirin-induced ulcer: Groups of ten male Donryu strain rats each weighing 220 to 230 g were deprived of food for 24 hours. The pylorus of each rat was ligated under ether anethesia according to the method of S. Okabe et al [Jap. J. Pharmac. 24, 357-361 (1974)]. After the pylorus ligation, aspirin (100 mg/kg) was administered orally to each rat. Seven hours after the administration, each of the animals was sacrificed under ether anesthesia to remove its stomach. After collection of the gastric juice and treatment with a 1% formalin solution, the length (mm) of each lesion formed in the glandular portion was measured. The total length (mm) of all the lesions of each rat was indicated as an ulcer index. Test medicine samples were given orally immediately after the pylorus ligation.

Histamine-induced ulcer = experiment: Histamine-induced ulcer, inhibitory effect, rats; type: in vivo, rat (male Donryu strain); conditions: P.O.; for Ulcer index (total length of all lesions): before histamine phosphate 300 mg/kg i.p.; for % Inhibition: vs control of the same run
Experimental: (§2) The anti-ulcer effects and degrees of toxicity of the N-acylcarnosine aluminum compounds according to the invention were determined using rats in which instances various gastric ulcer models of rats were utilized to estimate the anti-ulcer effects.
Histamine-induced ulcer: Groups of ten male Donryu strain rats each weighing 210 to 230 g were deprived of food for 48 hours and then administered intraperitoneally with histamine phosphate (300 mg/kg). Four hours after the administration, each of the animals was sacrificed under ether anesthesia, followed by removal of the stomach and immersion in a 1% formalin solution for ten minutes. The stomach which had been semi-fixed was incised along the greater curvature, and the length (mm) of each lesion was measured under a dissecting microscope (10×). The total length (mm) of all the lesions of each rat was indicated as an ulcer index. Test medicine samples were given orally before the histamine administration.

[1] = tested on: Indomethacin-induced ulcer; experiment: Indomethacin-induced ulcer, inhibitory effect, rats; type: in vivo, rat (male Donryu strain); conditions: 300 mg/kg, P.O.; for Ulcer index (total length of all lesions): ten minutes before pylorus ligation, indomethacin 25 mg/kg s.c.; for % Inhibition: vs control of the same run
Experimental: as §1
Indomethacin-induced ulcer: Groups of ten male Donryu strain rats each weighing 200 to 215 g were deprived of food for 24 hours. Then, the pylorus was ligated under ether anethesia, after which indomethacin was administered subcutaneously in an amount of 25 mg/kg to each rat. Seven hours after the administration, each of the animals was scarificed under ether anethesia to remove its stomach, followed by immersion in a 1% formalin solution for ten minutes. The stomach which had been semi-fixed was incised along its greater curvature, and the length (mm) of each lesion formed in the mucous membrane was measured under a dissecting microscope (10×). The total length (mm) of all the lesions of each rat was indicated as an ulcer index. Test medicine samples were given orally ten minutes before the pylorus legation.

[2] = Acute toxicity, oral, rats; type: in vivo; conditions: rat, in vivo, po; P.O., male rats, observed seven days
Experimental: (§3) Acute toxicity: Male and female Wister strain rats each weighing 150 to 200 g were divided into two groups, respectively, each group consisting of ten rats, and were administered orally with some of the N-acylcarnosine aluminum compounds according to the invention. The thus treated rats were visually observed for seven days after the administration.

rats = experiment: Acute toxicity, oral, rats; type: in vivo; conditions: P.O., female rats, observed seven days; 10080 min
Experimental: as §3

Shay's ulcer = Shay's ulcer (pylorus ligation), inhibitory effect, rats; type: in vivo, rat (male Donryu strain); conditions: P.O.; for Ulcer index (total area of all lesions) / % Inhibition: 1,000 mg/kg; for Ulcer index (total area of all lesions): immediately after pylorus ligation; for inhibition in vivo at 1000 mg/kg: 14 h, 1,000 mg/kg
Experimental: as §1
Shay's ulcer: Groups of ten male Donryu strain rats each weighing 210 to 230 g were deprived of food for 48 hours. The pylorus of each rat was ligated according to the method of Shay et al [Gastroenterology, 5, 43-61 (1945)]. Each of the animals was allowed to stand abstained from food and water for further 14 hours and then sacrificed to remove its stomach. After collection of the gastric juice, the ulcerated area (mm^2) in the forestomach of each rat was measured under a dissecting microscope (10x). The total area (mm^2) of all the lesions of each rat was indicated as an ulcer index. Test medicine samples were given orally immediately after the pylorus ligation.

Stress ulcer = Stress ulcer (water immersion restraint), inhibitory effect, rats; type: in vivo, rat (male Donryu strain); conditions: P.O.; for Ulcer index (total length of all lesions): ten minutes before immersion; for % Inhibition: vs control of the same run
Experimental: as §2
Stress ulcer: Groups of ten male Donryu strain rats each weighing 240 to 260 g were placed in a stress cage which served to immobilize the animals therein and then immersed in a water bath of 23° C. on a level with the xiphoid process according to the method of K. Takagi et al [Jap. […] Seven hours after the immersion, each of the animals was withdrawn from the water bath and immediately sacrificed by a blow on the head, followed by removal of the stomach of each rat. The stomach was slightly inflated by injecting a 1% formalin solution and then immediately immersed in a 1% formalin solution, followed by incising the stomach along its greater curvature to measure the length (mm) of each lesion in the glandular portion under a dissecting microscope (10x). The total length (mm) of all the lesions of each rat was indicated as an ulcer index. Test medicine samples were given orally ten minutes before the immersion in water.

[3] = Rattus norvegicus, po, vs control of the same run

Row | Molecule | Ulcer index (total length of all lesions) (Aspirin-induced ulcer) | % Inhibition (Aspirin-induced ulcer) | Ulcer index (total length of all lesions) (Histamine-induced ulcer; 300 mg/kg) | % Inhibition (Histamine-induced ulcer; 300 mg/kg) | Ulcer index (total length of all lesions) [1] | % Inhibition [1] | Ulcer index (total area of all lesions) (Shay's ulcer) | inhibition in vivo at 1000 mg/kg (Shay's ulcer; [3]) [%] | Ulcer index (total length of all lesions) (Stress ulcer; 1,000 mg/kg) | % Inhibition (Stress ulcer; 1,000 mg/kg) | % Inhibition (Shay's ulcer; vs control of the same run) | further results
1 | CC(=O)NCCC(=O)NC(Cc1c[nH]cn1)C(=O)O (racemic) [A, N-acetyl-DL-carnosine aluminum salt] | 0.6 ± 0.6 mm | 96.6% | 9.6 ± 1.8 mm | 60.2% | 6.5 ± 2.2 mm | 60.1% | 0.5 ± 0.5 mm^2 | 79.2 | 4.4 ± 2.2 mm | 71.1% | – | LD50 at 168 h [2]: > 10000 mg/kg; LD50 (rats): > 10,000 mg/kg; Ulcer index (total length of all lesions) (Stress ulcer; 300 mg/kg): 8.0 ± 2.8 mm; % Inhibition (Stress ulcer; 300 mg/kg): 47.4%
2 | CC(=O)NCCC(=O)N[C@@H](Cc1c[nH]cn1)C(=O)O [B, N-acetyl-L-carnosine aluminum salt] | 0.6 ± 0.6 mm | 96.4% | 9.1 ± 1.9 mm | 60.4% | 6.4 ± 2.2 mm | 61.9% | 0.6 ± 0.4 mm^2 | 76 | 4.8 ± 2.6 mm | 72.6% | – | LD50 at 168 h [2]: > 10000 mg/kg; LD50 (rats): > 10,000 mg/kg; Ulcer index (total length of all lesions) (Stress ulcer; 300 mg/kg): 9.2 ± 3.0 mm; % Inhibition (Stress ulcer; 300 mg/kg): 47.4%
3 | CC(=O)NCCC(=O)N[C@@H](Cc1c[nH]cn1)C(=O)O [C, N-acetyl-L-carnosine aluminum salt] | – | – | – | – | – | – | 1.0 ± 0.7 mm^2 | – | – | – | 65.5% | –
4 | CC(=O)NCCC(=O)N[C@@H](Cc1c[nH]cn1)C(=O)O [D, N-acetyl-L-carnosine aluminum salt] | – | – | – | – | – | – | 0.9 ± 0.9 mm^2 | – | – | – | 69.0% | –
5 | CCC(=O)NCCC(=O)N[C@@H](Cc1c[nH]cn1)C(=O)O [E, N-propionyl-L-carnosine aluminum salt] | – | – | – | – | – | – | 0.7 ± 0.5 mm^2 | 77.4 | – | – | – | –
6 | CCC(=O)NCCC(=O)N[C@@H](Cc1c[nH]cn1)C(=O)O [F, N-propionyl-L-carnosine aluminum salt] | – | – | – | – | – | – | 0.9 ± 0.7 mm^2 | – | – | – | 71.0% | –
7 | CCCCCCC(=O)NCCC(=O)N[C@@H](Cc1c[nH]cn1)C(=O)O [G, N-heptanoyl-L-carnosine aluminum salt] | – | – | – | – | – | – | 0.9 ± 1.0 mm^2 | 71 | – | – | – | –
8 | O=C(CCNC(=O)c1ccccc1)N[C@@H](Cc1c[nH]cn1)C(=O)O [H, N-benzoyl-L-carnosine aluminum salt] | – | – | – | – | – | – | 1.0 ± 0.9 mm^2 | 67.7 | – | – | – | –
9 | COc1ccccc1C(=O)NCCC(=O)N[C@@H](Cc1c[nH]cn1)C(=O)O [I, N-(o-methoxy)benzoyl-L-carnosine aluminum salt] | – | – | – | – | – | – | 1.1 ± 0.8 mm^2 | 64.5 | – | – | – | –
10 | NCCC(=O)N[C@@H](Cc1c[nH]cn1)C(=O)O [L-Carnosine, L-carnosine] | – | – | 17.3 ± 3.2 mm and 18.0 ± 2.7 mm | 28.2% and 21.7% | 17.3 ± 3.0 mm and 17.1 ± 3.1 mm | ~ 0% | – | 12.5 | 10.7 ± 2.2 mm and 12.1 ± 2.5 mm | 29.6% and 30.9% | – | Ulcer index (total length of all lesions) (Stress ulcer; 300 mg/kg): 14.2 ± 3.7 mm and 16.0 ± 4.0 mm; % Inhibition (Stress ulcer; 300 mg/kg): 6.6% and 8.6%
11 | NC(=O)CC[C@H](N)C(=O)O [L-Glutamine, L-glutamine] | 6.0 ± 2.2 mm and 4.5 ± 1.5 mm | 66.1% and 73.2% | – | – | 9.5 ± 4.1 mm and 9.7 ± 3.9 mm | 41.8% and 42.3% | – | 8.3 | – | – | – | –
12 | CC(=O)N[C@@H](CCC(N)=O)C(=O)O.[Al] [N-Acetyl-L-glutamine aluminum, N-acetyl-L-glutamine aluminum] | – | – | – | – | – | – | – | – | – | – | – | Ulcer index (total length of all lesions) (Histamine-induced ulcer; 2,000 mg/kg): 8.5 ± 3.0 mm; % Inhibition (Histamine-induced ulcer; 2,000 mg/kg): 63.0%; inhibition in vivo at 2000 mg/kg (Shay's ulcer; Rattus norvegicus, po, 14 h, 2,000 mg/kg, vs control of the same run): 67.7%; Ulcer index (total length of all lesions) (Stress ulcer; 2,000 mg/kg): 5.5 ± 4.8 mm; % Inhibition (Stress ulcer; 2,000 mg/kg): 68.6%
13 | aluminum sucrose sulfate | 3.7 ± 2.1 mm and 2.0 ± 1.1 mm | 79.1% and 88.1% | 14.4 ± 1.5 mm and 10.7 ± 2.1 mm | 40.2% and 53.5% | 7.8 ± 3.0 mm and 7.4 ± 2.8 mm | 52.1% and 56.0% | 0.8 ± 0.6 mm^2 and 0.9 ± 0.5 mm^2 and 0.7 ± 0.8 mm^2 and 0.8 ± 0.9 mm^2 | – | 6.5 ± 6.0 mm and 7.3 ± 6.8 mm | 56.7% and 58.3% | 72.4% and 71.0% and 71.7% and 68.0% | –

Reference: US4342774A, “N-Acylcarnosine aluminum salt, its preparation, and a digestive ulcer remedy containing such salt” (Nippon Chemiphar Co., Ltd., priority 1979, dated 1982)
